In patent US20080269241A1, “BICYCLIC AMINOPROPYL TETRAHYDRO-PYRAZOLO-PYRIDINE MODULATORS OF CATHEPSIN S” (priority 2007, published 2008):

target: T1, human cathepsin S (CatS) (Homo sapiens, UniProt P25774); assay: Recombinant human cathepsin S (CatS) fluorogenic substrate inhibition assay; assay type: biochemical; details: not given
T1 construct: made in house; host or cells: baculovirus system (insect cells)
Protocol: Recombinant human cathepsin S (CatS) was expressed in the baculovirus system and purified in one step with a thiopropyl-sepharose column. […] The assay is run in 150 mM sodium acetate pH 5.0 containing 1.5 mM DTT and 150 mM NaCl. […] Measurements are taken every min for 20 min. The rate is calculated from the slope of the increase in fluorescence and the percent inhibition is calculated from this.

T1 sequence (P25774 115-331): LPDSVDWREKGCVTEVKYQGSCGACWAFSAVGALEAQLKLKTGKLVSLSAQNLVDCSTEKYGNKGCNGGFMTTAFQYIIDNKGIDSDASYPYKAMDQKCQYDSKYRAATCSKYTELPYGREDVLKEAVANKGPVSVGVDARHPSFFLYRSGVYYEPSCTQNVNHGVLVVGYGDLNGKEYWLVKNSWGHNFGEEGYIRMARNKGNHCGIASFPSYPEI

| IC50 [nM] | SMILES |
| --- | --- |
| 10 | CC(C)CC(=O)NCc1cc(-c2nn(CC(O)CN3CCC(c4ccccc4)CC3)c3c2CN(S(C)(=O)=O)CC3)ccc1C(F)(F)F (stereo not drawn) [Example 288, N-(5-{1-[2-Hydroxy-3-(4-phenyl-piperidin-1-yl)-propyl]-5-methanesulfonyl-4,5,6,7-tetrahydro-1H-pyrazolo[4,3-c]pyridin-3-yl}-2-trifluoromethyl-benzyl)-3-methyl-butyramide] |

same assay, conditions: recombinant human CatS, 10 μM Z-Valine-Valine-Arginine-AMC, pH 5.0; average of results obtained; read-out: CatS IC50

| IC50 [nM] | SMILES |
| --- | --- |
| 220 | CC(C)(C)OC(=O)N1CCC(C(=O)NCc2cc(-c3nn(CC(O)CN4CCC(N5CCCC5=O)CC4)c4c3CN(S(C)(=O)=O)CC4)ccc2C(F)(F)F)CC1 (stereo not drawn) [Example 127, 4-[5-(1-{2-Hydroxy-3-[4-(2-oxo-pyrrolidin-1-yl)-piperidin-1-yl]-propyl}-5-methanesulfonyl-4,5,6,7-tetrahydro-1H-pyrazolo[4,3-c]pyridin-3-yl)-2-trifluoromethyl-benzylcarbamoyl]-piperidine-1-carboxylic acid tert-butyl ester] |
| 410 | Cc1ncsc1C(=O)NCc1cc(-c2nn(CC(O)CN3CCC(N4CCCC4=O)CC3)c3c2CN(S(C)(=O)=O)CC3)ccc1C(F)(F)F (stereo not drawn) [Example 137, 4-Methyl-thiazole-5-carboxylic acid 5-(1-{2-hydroxy-3-[4-(2-oxo-pyrrolidin-1-yl)-piperidin-1-yl]-propyl}-5-methanesulfonyl-4,5,6,7-tetrahydro-1H-pyrazolo[4,3-c]pyridin-3-yl)-2-trifluoromethyl-benzylamide] |
| 140 | CC(C)CC(=O)NCc1cc(-c2nn(CC(O)CN3CCC(N4CCOC4=O)CC3)c3c2CN(S(C)(=O)=O)CC3)ccc1C(F)(F)F (stereo not drawn) [Example 252, N-[5-(1-{2-Hydroxy-3-[4-(2-oxo-oxazolidin-3-yl)-piperidin-1-yl]-propyl}-5-methanesulfonyl-4,5,6,7-tetrahydro-1H-pyrazolo[4,3-c]pyridin-3-yl)-2-trifluoromethyl-benzyl]-3-methyl-butyramide] |
| 390 | Cc1noc(C2CCCN(CC(O)Cn3nc(-c4ccc(C(F)(F)F)c(CNC(=O)CC(C)C)c4)c4c3CCN(S(C)(=O)=O)C4)C2)n1 (stereo not drawn) [Example 285, N-[5-(1-{2-Hydroxy-3-[3-(3-methyl-[1,2,4]oxadiazol-5-yl)-piperidin-1-yl]-propyl}-5-methanesulfonyl-4,5,6,7-tetrahydro-1H-pyrazolo[4,3-c]pyridin-3-yl)-2-trifluoromethyl-benzyl]-3-methyl-butyramide] |
| 820 | CS(=O)(=O)N1CCc2c(c(-c3ccc(C(F)(F)F)c(CNC(=O)CN4CCC(O)C4)c3)nn2CCCN2CCC(N3CCCC3=O)CC2)C1 (stereo not drawn) [Example 184, 2-(3-Hydroxy-pyrrolidin-1-yl)-N-[5-(5-methanesulfonyl-1-{3-[4-(2-oxo-pyrrolidin-1-yl)-piperidin-1-yl]-propyl}-4,5,6,7-tetrahydro-1H-pyrazolo[4,3-c]pyridin-3-yl)-2-trifluoromethyl-benzyl]-acetamide] |
| 630 | CS(=O)(=O)N1CCc2c(c(-c3ccc(Cl)c(CNc4cccc(-c5ccccc5)c4)c3)nn2CCCN2CCC(N3CCCC3=O)CC2)C1 [Example 210, 1-[1-(3-{3-[3-(Biphenyl-3-ylaminomethyl)-4-chloro-phenyl]-5-methanesulfonyl-4,5,6,7-tetrahydro-pyrazolo[4,3-c]pyridin-1-yl}-propyl)-piperidin-4-yl]-pyrrolidin-2-one] |
| 10 | CC(C)=CC(=O)NCc1cc(-c2nn(CC(O)CN3CCN(c4ncccc4Cl)CC3)c3c2CN(S(C)(=O)=O)CC3)ccc1C(F)(F)F (stereo not drawn) [Example 262, 3-Methyl-but-2-enoic acid 5-(1-{3-[4-(3-chloro-pyridin-2-yl)-piperazin-1-yl]-2-hydroxy-propyl}-5-methanesulfonyl-4,5,6,7-tetrahydro-1H-pyrazolo[4,3-c]pyridin-3-yl)-2-trifluoromethyl-benzylamide] |
| 1320 | CS(=O)(=O)N1CCc2c(c(-c3ccc(C(F)(F)F)c(Cn4cnnn4)c3)nn2CCCN2CCC(N3CCCC3=O)CC2)C1 [Example 176, 1-(1-{3-[5-Methanesulfonyl-3-(3-tetrazol-1-ylmethyl-4-trifluoromethyl-phenyl)-4,5,6,7-tetrahydro-pyrazolo[4,3-c]pyridin-1-yl]-propyl}-piperidin-4-yl)-pyrrolidin-2-one] |
| 6250 | CS(=O)(=O)N1CCc2c(c(-c3ccc(C(F)(F)F)c(CNCCN4CCCCC4)c3)nn2CC(O)CN2CCC(N3CCCC3=O)CC2)C1 (stereo not drawn) [Example 179, 1-{1-[2-Hydroxy-3-(5-methanesulfonyl-3-{3-[(2-piperidin-1-yl-ethylamino)-methyl]-4-trifluoromethyl-phenyl}-4,5,6,7-tetrahydro-pyrazolo[4,3-c]pyridin-1-yl)-propyl]-piperidin-4-yl}-pyrrolidin-2-one] |
| 760 | CS(=O)(=O)N1CCc2c(c(-c3ccc(Cl)c(NC(=O)c4ccc([N+](=O)[O-])cc4)c3)nn2CCCN2CCN(c3cccc(Cl)c3)CC2)C1 [Example 226, N-[2-Chloro-5-(1-{3-[4-(3-chloro-phenyl)-piperazin-1-yl]-propyl}-5-methanesulfonyl-4,5,6,7-tetrahydro-1H-pyrazolo[4,3-c]pyridin-3-yl)-phenyl]-4-nitro-benzamide] |
| 60 | CS(=O)(=O)N1CCc2c(c(-c3ccc(C(F)(F)F)c(CNC(=O)c4ccc(F)cc4O)c3)nn2CC(O)CN2CCC(N3CCCC3=O)CC2)C1 (stereo not drawn) [Example 104, 4-Fluoro-2-hydroxy-N-[5-(1-{2-hydroxy-3-[4-(2-oxo-pyrrolidin-1-yl)-piperidin-1-yl]-propyl}-5-methanesulfonyl-4,5,6,7-tetrahydro-1H-pyrazolo[4,3-c]pyridin-3-yl)-2-trifluoromethyl-benzyl]-benzamide] |
| 120 | CC(C)CC(=O)NCc1cc(-c2nn(CC(O)CN3CCC(C(=O)N4CCOCC4)CC3)c3c2CN(S(C)(=O)=O)CC3)ccc1C(F)(F)F (stereo not drawn) [Example 260, N-[5-(1-{2-Hydroxy-3-[4-(morpholine-4-carbonyl)-piperidin-1-yl]-propyl}-5-methanesulfonyl-4,5,6,7-tetrahydro-1H-pyrazolo[4,3-c]pyridin-3-yl)-2-trifluoromethyl-benzyl]-3-methyl-butyramide] |
| 1700 | Cn1ccnc1C(=O)NCc1cc(-c2nn(CC(O)CN3CCC(N4CCCC4=O)CC3)c3c2CN(S(C)(=O)=O)CC3)ccc1C(F)(F)F (stereo not drawn) [Example 190, 1-Methyl-1H-imidazole-2-carboxylic acid 5-(1-{2-hydroxy-3-[4-(2-oxo-pyrrolidin-1-yl)-piperidin-1-yl]-propyl}-5-methanesulfonyl-4,5,6,7-tetrahydro-1H pyrazolo[4,3-c]pyridin-3-yl)-2-trifluoromethyl-benzylamide] |
| 3730 | CN1CCN(CC(=O)NCc2cc(-c3nn(CCCN4CCC(N5CCCC5=O)CC4)c4c3CN(S(C)(=O)=O)CC4)ccc2C(F)(F)F)CC1 [Example 180, N-[5-(5-Methanesulfonyl-1-{3-[4-(2-oxo-pyrrolidin-1-yl)-piperidin-1-yl]-propyl}-4,5,6,7-tetrahydro-1H-pyrazolo[4,3-c]pyridin-3-yl)-2-trifluoromethyl-benzyl]-2-(4-methyl-piperazin-1-yl)-acetamide] |
